# Source: patent US11197914B2, “GLP-1R/GCGR dual target agonist polypeptide for treatment of fatty liver diseases, hyperlipemia and arteriosclerosis” (Shenzhen Turier Biotech Co., Ltd., priority 2016, dated 2021)
# *1 amine or outer side, *2 acyl side, *3 side chain or, on linkers, in order; H or OH if unused. Primed or numbered codes have the meaning given here. Where no end group is shown, it is not given here. Side-chain parts run from the residue outwards. [ ]: non-standard residue; d: D form. The star is where a group is joined. C18 diacid = O=C(O)CCCCCCCCCCCCCCCCC(=O)*; C16 diacid = O=C(O)CCCCCCCCCCCCCCC(=O)*; γGlu = O=C(O)[C@H](CCC(=O)[*:2])N[*:1]; Stearoyl = CCCCCCCCCCCCCCCCCC(=O)*; Palmitoyl = CCCCCCCCCCCCCCCC(=O)*; Nle = CCCC[C@H](N)C(=O)O; PEG2′ = not defined here; Aib = CC(C)(N)C(=O)O
# Test system: Hepatic stellate cell strain LX-2
# Test: In vitro inhibition of hepatic fibrosis: expression of LX-2 cell activation marker α-SMA (Western Blot, α-SMA/β-actin)
# Format: cell-based, human
# Details: LX-2 cells; for Effect on expression of α-SMA (in words): 1 μM and 5 μM; for Relative expression of α-SMA (α-SMA/β-actin, %): 48 hours, negative control = 100%
# Method: Hepatic stellate cell strain LX-2 was selected to study and observe the effect of different doses of test substances on the expression of LX-2 cell activation marker […]. Hepatic stellate cell LX-2 was laid on 35 mm cell culture plate, cultured with DMEM (high glucose)+10% FBS+1% double-antibody culture medium (Thermo Fisher), placed overnight when the cells grew to 70% convergence at 37° C. and under the condition of 5% CO2, and treated with the above compounds 1-37 (dissolved in PBS) for 48 hours the next day morning to extract cell protein, carry out Western Blot, and take β-actin as internal reference and analyze the expression quantities of α-SMA and β-actin by a gray level of Image J 1.50i. PBS with the same volume as that in experimental group was added in negative control. […] The integrating gray level of α-SMA/β-actin in the negative control group was 100% to analyze the in vitro inhibition activity of hepatic fibrosis of tested polypeptide.
Substance,"Relative expression of α-SMA (α-SMA/β-actin, %) (1 μM) [%]",other results
His-Aib-Gln-Gly-Thr-Phe-Thr-Ser-Asp-Lys(PEG2-PEG2-γGlu-CO(CH2)16CO2H)-Ser-Lys-Tyr-Leu-Asp-Aib-Arg-Arg-Ala-Gln-Asp-Phe-Val-Gln-Trp-Leu-Leu-Asp-Gly-Gly-Pro-Ser-Ser-Gly-Ala-Pro-Pro-Pro-Ser-NH2 (H[Aib]QGTFTSDK([PEG2′-PEG2′-γGlu-C18 diacid])SKYLD[Aib]RRAQDFVQWLLDGGPSSGAPPPS-NH2) [Compound 19],43.46,"Inhibition of LX-2 cell activation marker α-SMA (in words, from Table 2): obviously reduce; Effect on expression of α-SMA (in words) (0.1 μM): reduce the expression of α-SMA under all concentrations; Relative expression of α-SMA (α-SMA/β-actin, %) (0.1 μM): 71.48%; Relative expression of α-SMA (α-SMA/β-actin, %) (5 μM): 39.75%"
His-(D-Ser)-Gln-Gly-Thr-Phe-Thr-Ser-Asp-Tyr-Ser-Lys-Tyr-Leu-Asp-Lys(PEG2-PEG2-γGlu-CO(CH2)14CH3)-Arg-Arg-Ala-Gln-Asp-Phe-Val-Gln-Trp-Leu-Nle-Asn-Thr-Gly-Gly-Pro-Ser-Ser-Gly-Ala-Pro-Pro-Pro-Ser-NH2 (H[dS]QGTFTSDYSKYLDK([PEG2′-PEG2′-γGlu-Palmitoyl])RRAQDFVQWL[Nle]NTGGPSSGAPPPS-NH2) [Compound 37],42.45,
His-(D-Ser)-Gln-Gly-Thr-Phe-Thr-Ser-Asp-Tyr-Ser-Lys(PEG2-PEG2-γGlu-CO(CH2)14CH3)-Lys-Leu-Asp-Aib-Arg-Arg-Ala-Gln-Asp-Phe-Val-Gln-Trp-Leu-Met-Asn-Thr-Gly-Gly-Pro-Ser-Ser-Gly-Ala-Pro-Pro-Pro-Ser-NH2 (H[dS]QGTFTSDYSK([PEG2′-PEG2′-γGlu-Palmitoyl])KLD[Aib]RRAQDFVQWLMNTGGPSSGAPPPS-NH2) [Compound 1],75.26,
His-(D-Ser)-Gln-Gly-Thr-Phe-Thr-Ser-Asp-Lys(PEG2-PEG2-CO(CH2)16CO2H)-Soer-Lys-Tyr-Leu-Asp-Aib-Arg-Arg-Ala-Gln-Asp-Phe-Val-Gln-Trp-Leu-Met-Asn-Thr-Gly-Gly-Pro-Ser-Ser-Gly-Ala-Pro-Pro-Pro-Ser-NH2 (H[dS]QGTFTSDK([PEG2′-PEG2′-C18 diacid])SKYLD[Aib]RRAQDFVQWLMNTGGPSSGAPPPS-NH2) [Compound 30],85.53,
His-Aib-Gln-Gly-Thr-Phe-Thr-Ser-Asp-Lys(PEG2-PEG2-γGlu-CO(CH2)14CH3)-Ser-Lys-Tyr-Leu-Asp-Aib-Arg-Arg-Ala-Gln-Asp-Phe-Val-Gln-Trp-Leu-Leu-Asp-Gly-Gly-Pro-Ser-Ser-Gly-Ala-Pro-Pro-Pro-Ser-NH2 (H[Aib]QGTFTSDK([PEG2′-PEG2′-γGlu-Palmitoyl])SKYLD[Aib]RRAQDFVQWLLDGGPSSGAPPPS-NH2) [Compound 8],80.25,
His-(D-Ser)-Gln-Gly-Thr-Phe-Thr-Ser-Asp-Tyr-Ser-Lys-Tyr-Leu-Asp-Aib-Lys(PEG2-PEG2-CO(CH2)16CO2H)-Arg-Ala-Gln-Asp-Phe-Val-Gln-Trp-Leu-Met-Asn-Thr-Gly-Gly-Pro-Ser-Ser-Gly-Ala-Pro-Pro-Pro-Ser-NH2 (H[dS]QGTFTSDYSKYLD[Aib]K([PEG2′-PEG2′-C18 diacid])RAQDFVQWLMNTGGPSSGAPPPS-NH2) [Compound 10],71.49,
His-(D-Ser)-Gln-Gly-Thr-Phe-Thr-Ser-Asp-Tyr-Ser-Lys-Tyr-Leu-Asp-Glu-Lys-Ala-Ala-Lys(PEG2-PEG2-γGlu-CO(CH2)16CO2H)-Glu-Phe-Ile-Glu-Trp-Leu-Leu-Asn-Gly-Gly-Pro-Ser-Ser-Gly-Ala-Pro-Pro-Pro-Ser-NH2 (H[dS]QGTFTSDYSKYLDEKAAK([PEG2′-PEG2′-γGlu-C18 diacid])EFIEWLLNGGPSSGAPPPS-NH2) [Compound 26],94.44,
His-(D-Ser)-Gln-Gly-Thr-Phe-Thr-Ser-Asp-Tyr-Ser-Lys-Tyr-Leu-Asp-Ser-Lys(PEG2-PEG2-γGlu-CO(CH2)16CH3)-Ala-Ala-His-Asp-Phe-Val-Glu-Trp-Leu-Leu-Arg-Ala-NH2 (H[dS]QGTFTSDYSKYLDSK([PEG2′-PEG2′-γGlu-Stearoyl])AAHDFVEWLLRA-NH2) [Compound 25],93.34,
His-(D-Ser)-Gln-Gly-Thr-Phe-Thr-Ser-Asp-Lys(PEG2-PEG2-γGlu-CO(CH2)14CH3)-Ser-Lys-Tyr-Leu-Asp-Aib-Arg-Arg-Ala-Gln-Asp-Phe-Val-Gln-Trp-Leu-Met-Asn-Thr-Gly-Gly-Pro-Ser-Ser-Gly-Ala-Pro-Pro-Pro-Ser-NH2 (H[dS]QGTFTSDK([PEG2′-PEG2′-γGlu-Palmitoyl])SKYLD[Aib]RRAQDFVQWLMNTGGPSSGAPPPS-NH2) [Compound 4],88.50,
His-(D-Ser)-Gln-Gly-Thr-Phe-Thr-Ser-Asp-Lys(PEG2-PEG2-CO(CH2)16CH3)-Ser-Lys-Tyr-Leu-Asp-Aib-Arg-Arg-Ala-Gln-Asp-Phe-Val-Gln-Trp-Leu-Met-Asn-Thr-Gly-Gly-Pro-Ser-Ser-Gly-Ala-Pro-Pro-Pro-Ser-NH2 (H[dS]QGTFTSDK([PEG2′-PEG2′-Stearoyl])SKYLD[Aib]RRAQDFVQWLMNTGGPSSGAPPPS-NH2) [Compound 32],97.14,
His-(D-Ser)-Gln-Gly-Thr-Phe-Thr-Ser-Asp-Tyr-Ser-Lys-Tyr-Leu-Asp-Lys(PEG2-PEG2-γGlu-CO(CH2)16CH3)-Arg-Arg-Ala-Gln-Asp-Phe-Val-Gln-Trp-Leu-Met-Asn-Thr-Gly-Gly-Pro-Ser-Ser-Gly-Ala-Pro-Pro-Pro-Ser-NH2 (H[dS]QGTFTSDYSKYLDK([PEG2′-PEG2′-γGlu-Stearoyl])RRAQDFVQWLMNTGGPSSGAPPPS-NH2) [Compound 36],62.49,"Inhibition of LX-2 cell activation marker α-SMA (in words, from Table 2): obviously reduce"
His-(D-Ser)-Gln-Gly-Thr-Phe-Thr-Ser-Asp-Lys(PEG2-PEG2-γGlu-CO(CH2)16CO2H)-Ser-Lys-Tyr-Leu-Asp-Aib-Arg-Arg-Ala-Gln-Asp-Phe-Val-Gln-Trp-Leu-Met-Asn-Thr-Gly-Gly-Pro-Ser-Ser-Gly-Ala-Pro-Pro-Pro-Ser-NH2 (H[dS]QGTFTSDK([PEG2′-PEG2′-γGlu-C18 diacid])SKYLD[Aib]RRAQDFVQWLMNTGGPSSGAPPPS-NH2) [Compound 5],67.94,"Inhibition of LX-2 cell activation marker α-SMA (in words, from Table 2): obviously reduce; Effect on expression of α-SMA (in words) (0.1 μM): reduce the expression of α-SMA under all concentrations; Relative expression of α-SMA (α-SMA/β-actin, %) (0.1 μM): 66.04%; Relative expression of α-SMA (α-SMA/β-actin, %) (5 μM): 33.45%"
His-Aib-Gln-Gly-Thr-Phe-Thr-Ser-Asp-Lys(PEG2-PEG2-γGlu-CO(CH2)14CO2H)-Ser-Lys-Tyr-Leu-Asp-Aib-Arg-Arg-Ala-Gln-Asp-Phe-Val-Gln-Trp-Leu-Leu-Asp-Gly-Gly-Pro-Ser-Ser-Gly-Ala-Pro-Pro-Pro-Ser-NH2 (H[Aib]QGTFTSDK([PEG2′-PEG2′-γGlu-C16 diacid])SKYLD[Aib]RRAQDFVQWLLDGGPSSGAPPPS-NH2) [Compound 11],96.78,
His-(D-Ser)-Gln-Gly-Thr-Phe-Thr-Ser-Asp-Tyr-Ser-Lys(PEG2-PEG2-CO(CH2)16CH3)-Lys-Leu-Asp-Aib-Arg-Arg-Ala-Gln-Asp-Phe-Val-Gln-Trp-Leu-Met-Asn-Thr-Gly-Gly-Pro-Ser-Ser-Gly-Ala-Pro-Pro-Pro-Ser-NH2 (H[dS]QGTFTSDYSK([PEG2′-PEG2′-Stearoyl])KLD[Aib]RRAQDFVQWLMNTGGPSSGAPPPS-NH2) [Compound 3],82.25,
